What was measured:
BxPC-3 cell lines = assay: In vitro cytotoxicity of nano-formulations; type: cell-based; conditions: human
Protocol: Next, the cytotoxicity of pSiNP, JS-11, pSiNPs (JS-11), and ROSG-pSiNP (JS-11) was evaluated for BxPC-3 cell lines. The throughput of pSiNP (JS-11) and ROSG-pSiNP (JS-11) was corrected with the concentration of JS-11 (0 to 10 μM).
The cytotoxicity of two nano-formulations, pSiNP-NCS (without JS-11 and TEPITC-modifying) and pSiNP-NCS/CGKRK (SEQ ID NO: 1) (without JS-11 and CGKRK-modifying), was further analyzed to confirm the synergistic cytotoxic effect of JS-11 and TEPITC.

[1] = Conversion of JS-11 to SN-38 by ROS (emission change); type: physicochemical; conditions: 37° C.; reacted only with H2O2
Protocol: To confirm whether JS-11 is converted to SN-38 by ROS, the change in the emission spike of JS-11 using H2O2 at 37° C. was measured. Since JS-11 has no electron push-pull capability, there is no emission in aqueous media but decomposes upon exposure to H2O2 and fluoresces at 560 nm.

BxPC-3 pancreatic tumors = assay: Therapeutic efficacy in pancreatic cancer xenograft model mice; type: in vivo; conditions: 20 mg/kg via tail vein on days 34, 37, 40, 43; FIG. 25
Protocol: BALB/c nude mice (females and males, 4 weeks and 5 weeks old) were commercially obtained from Nara Co., Ltd., Gyeonggi-do, Korea. BxPC-3 cells (5×10^6 cells, suspended in 100 μl mixture of RPMI medium and Matrigel, 1:1) were injected subcutaneously behind the flank of each mouse. All animal experiments were performed according to the guidelines of the Korea Kyunghee University Animal Care Committee (IACUC).
Tumor-bearing mice were randomly divided into 5 groups (n=5 per group). (1) PBS only, (2) pSiNP only, (3) JS-11, (4) pSiNP (JS-11), and (5) ROSG-pSiNP (JS-11) were administered by intravenous injection (i.v.) 4 times at intervals of 3 days at a dose of 20 mg/kg, 100 μl each.
The mouse tumor size was recorded every 3 days until the end of the experiment, and the tumor volume was calculated by the formula V=[(tumor length)×(tumor width)^2]/[…]. At the end of the experiment (day 22), the body of each mouse was photographed with a digital camera, and body weight was measured.
Finally, the cancer treatment efficacy of ROSG-pSiNP (JS-11) was evaluated in pancreatic cancer xenograft model mice. To induce pancreatic tumors, BxPC-3 cells were injected subcutaneously behind the flank of mice on day 0. […] Changes in tumor volume and body weight in mice were monitored, and toxic effects were investigated for practical applications.

[2] = tested on: nuclear factor erythroid 2-related factor 2 (Nrf2); assay: Nrf2 expression in BxPC-3 cells by Western blot (TEPITC/PEITC); type: cell-based, Human; conditions: for time of greatest increase in Nrf2 expression after incubation / expression of Nrf2: 20 μM; for expression of Nrf2: 0 to 4 hours
Protocol: Oxidative stress-related signaling pathways were analyzed to confirm the association between […] treatment and intracellular ROS upregulation. PEITC was used as a positive control group. PEITC is known to induce Nrf2 accumulation in human prostate cancer PC-3 cells and increase the expression of endogenous heme oxygenase-1 (HO-1) protein. According to FIG. 7A, BxPC-3 cells were treated with […] It is noteworthy that the expression of Nrf2 in the […] treatment group was maximum 30 minutes after incubation began but decreased from 1 hour later.

BxPC-3 cells [3] = assay: PEITC/TEPITC-induced intracellular ROS generation (DCFDA/DCF kit, CLSM); type: cell-based, Human; conditions: 20 μM, 2 hours; for fluorescence intensity-based enhancement factor (DCF, ROS level) compared with before chemical treatment: FIG. 4 (BxPC-3)
Protocol: The intracellular ROS levels of cells were analyzed using the 2',7'-dichlorofluorosine diacetate (DCFDA/H2DCFDA) cell ROS detection analysis kit. BxPC-3, AsPC-1, and PANC-1 cells (1×10^5 cells/mL, 100 μl/well) were inoculated into 96-well black plates and incubated at 37° C. for 24 hours. The cells were then treated with PEITC or […] at 1.25, 2.5, 5, 10, and 20 μM, respectively, and then incubated at 37° C. for 2 hours. As a positive control group, a set treated with hydrogen peroxide (H2O2) was prepared. The cells were then treated with 20 μM DCFDA (100 μl) at 37° C. for 45 minutes. Excitation/emission wavelengths at 485/535 nm were measured with a microplate reader (Fluorostar Omega, BMG Labtech, Germany). Intracellular ROS generation was assessed by CLSM (LSM800, Carl Zeiss, Oberkochen, Germany) imaging using BxPC-3 cells. BxPC-3 cells (1×10^5 cells/mL, 2 mL) were inoculated into confocal plates. After 24 hours incubation, cells were treated with 20 μM PEITC and […] for 2 hours. The cells were then stained with 20 μM DCFDA (200 μL) at 37° C. for 45 minutes, washed 3 times with PBS, and stained with DAPI for 10 minutes. After washing 3 times, the cells were fixed with 4% paraformaldehyde for 20 minutes. The excitation and emission channels are: DAPI (405 nm, 400-520 nm band filter), ROS (488 nm, 400-585 nm band filter). Cells were contacted with ITC, and intracellular ROS generation was assessed. Human pancreatic cell lines BxPC-3, AsPC-1, and PANC-1 were treated with […], and ROS levels were measured using the DCFDA/DCF kit. When 2',7'-dichlorofluorescein diacetate (DCFDA) diffuses into cells, it is deacetylated to H2DCF by cellular esterase, and when H2DCF comes into contact with ROS, it is converted to green fluorescent DCF. Phenethyl isothiocyanate (PEITC) and H2O2 were used as positive control groups. Each chemical substance ([…], and H2O2, concentration=0 to 20 μM) were treated on the cell line and incubated for 2 hours.

Nrf2 = Nrf2 immunofluorescence / nuclear translocation (CLSM); type: cell-based, Human; conditions: 30 minutes, BxPC-3
Protocol: CLSM imaging was used to verify that […] induces nuclear translocation of cytoplasmic Nrf2. BxPC-3 cells were treated with […] (0 to 10 μM), incubated for 30 minutes, and visualized by treatment with Nrf2 antibody and DAPI.

BxPC-3 cells [4] = assay: Cytotoxicity of isothiocyanates (CCK-8 assay); type: cell-based, Human; conditions: 10 μM, 24 hours
Protocol: Next, the cytotoxicity of TEPITC was analyzed. BxPC-3 cells were treated with 0 to 10 μM of TEPITC or PEITC and incubated for 24 hours, and cytotoxicity and viability were analyzed by CCK-8 assay.

heme oxygenase-1 (HO-1) = assay: HO-1 expression in BxPC-3 cells by Western blot; type: cell-based, Human; conditions: 5 μM, 0 to 6 hours
Protocol: The expression level of HO-1, an antioxidant enzyme essential for cell protection against oxidative stress, was also analyzed. Cells were treated with […] (5 μM) and incubated for 0 to 6 hours. […] This is thought to be because Nrf2 is a transcription factor that regulates the expression of HO-1.

| SMILES | cytotoxicity (BxPC-3 cell lines; 0.625 μM) | cytotoxicity (BxPC-3 cell lines; 10 μM) | conversion to SN-38 under pH 3 to 10, metal ions and biomolecules [1] | mean tumor volume (BxPC-3 pancreatic tumors) | time of greatest increase in Nrf2 expression after incubation [2] | expression of Nrf2 [2] | fluorescence intensity-based enhancement factor (DCF, ROS level) compared with before chemical treatment (BxPC-3 cells [3]) | increase in Nrf2 level, concentration dependence ([2]; 0 to 20 μM) | intracellular ROS level (fluorescence analysis and CLSM images) (BxPC-3 cells [3]; BxPC-3) | Nrf2 immunofluorescence localisation (Nrf2; 2.5 μM) | Nrf2 immunofluorescence localisation (Nrf2; 5 μM) | Nrf2 immunofluorescence localisation (Nrf2; 10 μM) | cytotoxicity compared to the untreated group cells (BxPC-3 cells [4]) | expression level of intracellular HO-1 (heme oxygenase-1 (HO-1)) | time of highest HO-1 expression (heme oxygenase-1 (HO-1)) |
| --- | --- | --- | --- | --- | --- | --- | --- | --- | --- | --- | --- | --- | --- | --- | --- |
| CCc1c2c(nc3ccc(OC(=O)c4ccccc4Nc4cccc(C)c4C)cc13)-c1cc3c(c(=O)n1C2)COC(=O)[C@]3(O)CC [JS-11] | 21.60% | 42.4% | did not show the conversion to SN-38 | 183.1±40.8 mm^3 |  |  |  |  |  |  |  |  |  |  |  |
| S=C=NCCc1ccccc1 [PEITC, Phenethyl isothiocyanate, reference compound] |  |  |  |  | 30 min | significantly increased | 3.67 times |  |  |  |  |  |  |  |  |
| CCO[Si](CCCN=C=S)(OCC)OCC [TEPITC, 3-isothiocyanatopropyltriethoxysilane] |  |  |  |  | 30 min | significantly increased | 6.34 times | concentration-dependent in the range of 2.5 to 10 μM | upregulates the intracellular ROS level, and the effect was superior to PEITC | increase in Nrf2 expression in the cytoplasm | in the nucleus Nrf2 expression was observed | Nrf2 signal in the nucleus was weakened | up to 80% | significantly increased | 2 h and 4 h |

— patent US12605462B2, “Porous silicon nanoparticle-based drug delivery system inducing reactive oxygen species and self-activation thereof, and method for preparing same” (University-Industry Cooperation Group of Kyung Hee …, priority 2021, dated 2026)
